Some test systems named below: TK-10; IGROV-1; HOP-92; SF-268; A549; UACC-62; COLO 205; NCI-H23; KM12; A498; UACC-257; HOP-62; HCT-15; NCI-H460; K562; CCRF-CEM.
Experiment in all cases: growth of human tumour cells (NCI), 48 h

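Cultured in 96-well plates, cells were exposed to test compound for 48 hours across five concentrations. At the GI50, growth is halved.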 Calls of active or inactive are those of the source. Rule as the data show it: active = GI50 up to about 1.1 µM and inactive = higher.

For the compound `Cc1ccc(NC(=O)C(=O)CC(=O)C2CCOC2=O)c(C)c1` (stereo not drawn), the GI50 with TK-10, with IGROV-1, with HOP-92, in the experiment on SF-268, in the experiment on A549 and with UACC-62 was > 100 µM (inactive) each time. The GI50 in the experiment on COLO 205, with NCI-H23, in the experiment with KM12, in the experiment with A498, in the experiment on UACC-257 and with HOP-62 was > 100 µM (inactive) in each case. Moreover, the GI50 with HCT-15 is > 100 µM; in the experiment on NCI-H460, > 100 µM (inactive); with K562 it was > 100 µM (inactive); in the experiment on CCRF-CEM, > 100 µM (inactive).
With `CCCCCC(O)(CCCCC)CCCCCCCCC1=C(O)C(=O)c2ccc(=O)[nH]c2C1=O`, the GI50 in the experiment with IGROV-1 is 5.53 µM (inactive); in the experiment on HOP-92 it was 13.3 µM (inactive); in the experiment with SF-268 it was 5.02 µM (inactive); with A549, 5.41 µM (inactive); with UACC-62, 3.2 µM (inactive); in the experiment with COLO 205 it was 17.9 µM (inactive). Also, the GI50 in the experiment on NCI-H23 is 2.61 µM (inactive); in the experiment with KM12 it was 11 µM (inactive); in the experiment with A498, 12.2 µM (inactive); in the experiment with UACC-257, 3.64 µM (inactive); with HOP-62, 10.4 µM (inactive); in the experiment on HCT-15 it was 4.22 µM. The results for the GI50 with NCI-H460, with K562 and with CCRF-CEM were 8.85 µM (inactive), 5.07 µM (inactive) and 5.62 µM (inactive), respectively.
Regarding `COc1cc2c(cc1OC(=O)CC(C)O)C1C(OC2=O)C(OC(C)=O)C=C2CCN(C)[C@H]21` (stereo partly drawn), the GI50 in the experiment with TK-10 was 26.3 µM (inactive); in the experiment with IGROV-1 it was 21.5 µM (inactive); in the experiment on HOP-92 it was 17.3 µM (inactive); in the experiment on SF-268 it was 46.3 µM (inactive); in the experiment on A549, 64.3 µM (inactive); in the experiment on UACC-62, 31.1 µM (inactive). Also, the GI50 with COLO 205 is 81.3 µM (inactive); in the experiment on NCI-H23 it was 33.1 µM (inactive); in the experiment on KM12, > 100 µM (inactive); with A498, 17.2 µM (inactive); with UACC-257 it was > 100 µM (inactive); in the experiment on HOP-62, 21.1 µM (inactive). Also, the GI50 with NCI-H460, with K562 and in the experiment on CCRF-CEM was > 100 µM (inactive) throughout.
With `O=c1oc2c(O)c(O)cc3c(=O)oc4c(O)c(O)cc1c4c23` [ELLAGIC ACID], the GI50 was 75.2 µM (inactive) in the experiment with TK-10; 45.4 µM (inactive) in the experiment on IGROV-1; 31 µM (inactive) with HOP-92; 56.5 µM (inactive) in the experiment on SF-268; 68.2 µM (inactive) in the experiment on A549; 40.8 µM (inactive) with UACC-62. Further, the GI50 is > 10 µM (inactive) with COLO 205; 47.9 µM (inactive) in the experiment with NCI-H23; > 10 µM (inactive) in the experiment on KM12; 21.4 µM (inactive) in the experiment on A498; > 10 µM (inactive) in the experiment with UACC-257; > 10 µM (inactive) with HOP-62. Also, the GI50 in the experiment on HCT-15 is 79.8 µM; in the experiment with NCI-H460, 53.5 µM (inactive); in the experiment on K562, > 10 µM (inactive); in the experiment on CCRF-CEM it was > 10 µM (inactive).
For the compound `COc1cc(/C=C\c2ccc(Cl)cc2)cc(OC)c1OC`, the GI50 was 38.9 µM (inactive) in the experiment on TK-10; 1.08 µM (active) with IGROV-1; 0.326 µM (active) in the experiment on HOP-92; 0.843 µM (active) in the experiment on SF-268; 0.196 µM (active) in the experiment with A549; 0.0885 µM (active) in the experiment with UACC-62. Besides, the GI50 in the experiment with COLO 205 was 0.443 µM (active); with NCI-H23 it was 0.247 µM (active); in the experiment with KM12, 0.173 µM (active); in the experiment with A498 it was 0.171 µM (active); in the experiment on UACC-257, 0.804 µM (active); with HOP-62, 0.302 µM (active). For the same compound, the GI50 was 0.196 µM in the experiment with HCT-15, 0.221 µM (active) in the experiment on NCI-H460, 0.033 µM (active) in the experiment with K562 and 0.0964 µM (active) in the experiment with CCRF-CEM.

(Values after ChEMBL document CHEMBL1201862, “PubChem BioAssay data set” (2004).)
